row,SMILES,melting point
1,CN(C)c1ccc2c3c(cccc13)C(=O)c1ccccc1-2,125 to 127 °C
2,Cc1cc(-c2noc(CO)n2)ccc1Br,111 to 112 °C
3,O=C(O)CN1C(=O)C(=Cc2ccc(CO)o2)SC1=S,206 to 209 °C
4,CCCCc1nc(C)c(CC(=S)N2CCCC2)c(=O)n1Cc1ccc(-c2ccccc2-c2nnn[nH]2)cc1,94.4 to 97.3 °C
5,O=c1n(-c2cc(O)c(Cl)cc2F)nc2ccc(Cl)cn12,> 210 °C
6,CCCC(C)c1nn(-c2ccc(C(F)(F)F)cn2)cc1CCCO (stereo unspecified),72 to 73 °C
7,Cc1cc(C)c(C(C)(C#N)c2nc(C)nc(Cl)c2C)c(C)c1 (stereo unspecified),181 to 183 °C
8,Cc1c(CN(C)CCc2ccc(NS(C)(=O)=O)cc2)oc2ccc(NS(C)(=O)=O)cc12,142 to 144 °C
9,Cc1cc(-c2cccc(Cl)c2)nn2c(C)nnc12,194 to 196 °C
10,CCCNC(=O)C(CCC(=O)NCCCOC(C)=O)NC(=O)C=Cc1ccco1 (stereo unspecified),154 to 156 °C
11,CC(C)Oc1cc([N+](=O)[O-])ccc1-n1cccc1,59 to 61 °C
12,Cc1ccc(SC2OC(COC(=O)c3ccccc3)C(O)C(OC(=O)c3ccccc3)C2OC(=O)c2ccccc2)cc1 (stereo unspecified),197 °C
13,Cc1csc(Nc2nc(C(C)(C)C)c(O)c(C(C)(C)C)n2)n1,171 to 173 °C
14,Oc1ccc2c(-c3ccc(F)cc3F)noc2c1Cl,186 to 190 °C
15,Cc1[nH]c2c(Cl)cc(Nc3cnccc3N)cc2c1C,108 to 110 °C
16,CCC(=O)N(C)c1cccc(-c2ccc3nnc(NC)n3n2)c1,212 to 213 °C
17,O=C(COc1cccc(C(F)(F)F)c1)N[C@@H](Cc1ccccc1)C(=O)CSCc1ccco1,72 to 80 °C
18,CNC(=O)c1ccc(=O)n(CCNC(=O)c2cccnc2)c1,208 to 210 °C
19,CC(=O)N1CCc2c(c(=O)c3cccnc3n2-c2ccccc2)C1,210 to 212 °C
20,Cc1c(C)c2cc(CCN3CCN(c4n[nH]c5ccccc45)CC3)ccc2[nH]c1=O,266 to 268 °C
21,CCOC(=O)N1CCC(=C2c3ccc(Cl)cc3OCc3cc(Br)cnc32)CC1,148 to 149 °C
22,CCOC(=O)c1ccnnc1NC(=O)Cc1c(F)cc(F)cc1F,135 °C
23,CCOC(=O)CCc1ccc2[nH]c(-c3cccnc3)c(C)c2c1,> 275 °C
24,NC(=O)c1cc(NCc2ccc(Cl)cc2)c([N+](=O)[O-])cc1[N+](=O)[O-],207 to 210 °C
25,c1cc2ncn(CCCCc3nnnn3C3CCCCC3)c2cn1,133 to 135 °C
26,CCOC1CC2(C)C(CCC3C4CCC(=O)C4(C)CC(N)C32)CC1O (stereo unspecified),144 to 148 °C

row,SMILES,melting point
1,CC(C)n1cc(-c2nc(C#N)c(N)nc2-c2ccc(F)cc2)ccc1=O,207 °C
2,O=c1cc(-c2n[nH]c3ccccc23)oc2ccccc12,237 to 238 °C
3,CCC(=O)Cc1cc(OC2CCCC2)ccc1NC(=O)OC(C)(C)C,71 to 73 °C
4,N#Cc1ccc(/C=C/c2nc[nH]c2[N+](=O)[O-])cc1,> 300 °C
5,O=C(Nc1cccc2c(N=P(c3ccccc3)(c3ccccc3)c3ccccc3)ccnc12)c1c(Cl)cccc1Cl,276 to 281 °C
6,CCCCc1oc2ccccc2c1C(=O)NCc1ccc2cc(O)ccc2c1,155 to 156 °C
7,Nc1cc([N+](=O)[O-])c(N)cc1Cl,157 °C
8,CCOC(=NC(=O)Nc1ccc(Cl)cc1)N1Cc2ccccc2-c2ccccc2C1,154 to 156 °C
9,CN1CC(CCCCN2CCN(c3ccccc3)CC2)OC1=O (stereo unspecified),85 to 88 °C
10,NC(=O)c1ccc(Nc2ccncc2)cc1,223 to 226 °C
11,CCOC(=O)C1=CC2(CCC1S(=O)(=O)Nc1ccc(F)cc1Cl)O[C@H]([C@H](O)CO)[C@@H]([C@H](O)CO)O2 (stereo partly specified),55 to 56 °C
12,CCCN=C(N)Nc1ccnc(SCCCC(=N)NC#N)n1,210 to 215 °C
13,CCC(C#N)c1ccc(Cl)c2nc3n(c12)CCCN3c1ccc(Cl)cc1Cl (stereo unspecified),220 to 221 °C
14,CC(C)(O)Cn1c(CO)nc2c(N)nc3cc(-c4ccccc4)cnc3c21,244 to 245 °C
15,CCOC(=O)c1cnn(-c2cccc(Cl)n2)c1S(N)(=O)=O,125 to 128 °C
16,CC(=O)c1ccc(OC2CCN(C(=O)OC(C)(C)C)CC2)cc1F,72 to 73 °C
17,BrCc1c(Br)c(CBr)c(Br)c(CBr)c1Br,220 to 223 °C
18,CSc1ccc(NC(=N)c2ccccc2)cc1,129 to 131 °C
19,CS(=O)(=O)c1ccc(Cl)cc1C1NC(=O)NC1=O (stereo unspecified),238 to 240 °C
20,c1ccc(CCN2CCC(c3cc(-c4ccccn4)[nH]n3)CC2)cc1,155 to 157 °C
21,CC(C)(C)OC(=O)NN1CCC(C(=O)O)CC1,133 to 135 °C
22,CCOc1ccc(C(C)=O)cc1C(=O)OC,50 to 55 °C
23,CC(C)(C)ON1C(C)(C)CC(OC(=O)c2ccccc2)CC1(C)C,80 to 82.5 °C
24,CC1=C(c2cc(C)no2)C(=O)CCC1,104 to 105 °C
25,CCC1(C(NC(=O)c2ccc(Cl)cc2)NC(=NC#N)Nc2cccnc2)COCOC1 (stereo unspecified),194 to 195 °C

# From a melting point compilation (Tetko et al.; mined from patent text by program, amines drawn as free bases though some values may be those of a salt)
